The values that follow come from ChEMBL document CHEMBL4715905, “Solution Conformations Shed Light on PROTAC Cell Permeability” (ACS Med Chem Lett, 2021).

Structures are written as SMILES. In brackets after ≈: the same amount, converted by molar mass.

Data set [1] deals with Mitogen-activated protein kinase 7 (Homo sapiens, UniProt Q13164). The data set is described as follows: Inhibition of recombinant human GST-tagged ERK5 (1 to 398 assessed as phosphorylated peptide substrate incubated for 60 mins by TR-FRET based biochemical assay. In general terms: Time-resolved FRET reads energy transfer from a long-lived donor to a nearby acceptor.
Data set [2] in a line: Solubility of compound in PBS buffer at pH 6.5. It is filed as physicochemical.
Data set [3] is described as follows: Lipophilicity, logD of compound at pH 7.5. The conditions noted are these: buffer. It is filed as physicochemical.

Sequence of Mitogen-activated protein kinase 7 (Q13164 whole entry): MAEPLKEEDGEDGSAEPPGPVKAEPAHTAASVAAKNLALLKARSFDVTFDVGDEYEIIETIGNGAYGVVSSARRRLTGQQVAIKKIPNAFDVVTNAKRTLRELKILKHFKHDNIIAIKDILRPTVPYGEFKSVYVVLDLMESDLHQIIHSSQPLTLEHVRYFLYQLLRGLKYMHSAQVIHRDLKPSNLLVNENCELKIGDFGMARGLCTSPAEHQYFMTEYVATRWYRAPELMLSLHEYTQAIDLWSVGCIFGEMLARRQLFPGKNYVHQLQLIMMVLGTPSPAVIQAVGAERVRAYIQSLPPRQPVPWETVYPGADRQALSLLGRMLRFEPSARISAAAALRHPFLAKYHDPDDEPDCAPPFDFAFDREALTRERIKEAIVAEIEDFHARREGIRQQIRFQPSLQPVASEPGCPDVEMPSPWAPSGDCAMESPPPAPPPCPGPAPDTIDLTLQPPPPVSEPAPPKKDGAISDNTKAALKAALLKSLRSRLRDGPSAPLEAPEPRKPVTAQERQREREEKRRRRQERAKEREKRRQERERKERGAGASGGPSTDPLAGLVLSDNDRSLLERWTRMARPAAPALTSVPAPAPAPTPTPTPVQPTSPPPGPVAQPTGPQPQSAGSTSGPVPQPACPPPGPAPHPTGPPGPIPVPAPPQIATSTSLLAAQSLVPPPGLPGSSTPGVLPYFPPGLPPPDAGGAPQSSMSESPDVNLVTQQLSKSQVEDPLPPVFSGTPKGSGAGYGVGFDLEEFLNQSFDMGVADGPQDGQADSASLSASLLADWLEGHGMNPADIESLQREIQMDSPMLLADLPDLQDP

The IC50 is the concentration at which inhibition is half-maximal. The solubility is how much of the substance goes into solution per volume. A high value points to much dissolved substance. For orientation: logD means the decadic logarithm of the distribution of all forms, ionised or not, between an organic phase and buffer at a given pH. Read a low logD as lower lipophilicity. In the case of `Cc1ncsc1-c1ccc(CNC(=O)[C@@H]2C[C@@H](O)CN2C(=O)[C@@H](NC(=O)COCCOCCNC(=O)COc2cnc3c(C4CCN(C(=O)c5ccc(OC(F)(F)F)cc5)CC4)ncnc3c2)C(C)(C)C)cc1`, in data set [1], the concentration for half-maximal inhibition (IC50) is 1230 nM. The solubility in data set [2] was 7 µg/mL (≈ 6.77 µM). For the same molecule, the logD in data set [3] worked out at 2.68.
